The values that follow come from article PMC12040169 (PLOS Biology, 2025).

SMILES strings stand for the structures.

One series can be described thus: in vitro. The conditions noted are these: human, hela cells.
Turning to `N#CC(CCCN1CCC(O)(c2ccccc2)CC1)(c1ccccc1)c1ccccc1` [CBK002145], the viability at 28.5 h, 10 µM was 105%.

The same series, now with this note: human, hela cells, % viability.
Turning to `CCOc1nccnc1N1CCNCC1` [CBK001899G], the viability at 28.5 h, 10 µM amounted to 93.1%.

On to `CCCCCOc1nccnc1N1CCNCC1` [CBK001901G], for which the viability at 28.5 h, 10 µM was 103%.

For `COCCOc1nccnc1N1CCNCC1` [CBK001903G], the viability at 28.5 h, 10 µM is 103%.

Turning to `CNC(=O)N1CC(=O)N(Cc2cccc(Cl)c2)C1=O` [CBK001918], the viability at 28.5 h, 10 µM was determined as 104%.

In the case of `Cc1ccc(S(=O)(=O)n2nncc2C)cc1` [CBK001921], the viability at 28.5 h, 10 µM came to 111%.

Take `COc1ccc(-c2oc(C(=O)N(C)C)c(C(=O)O)c2-c2ccc(OC)cc2)cc1` [CBK001958]: the viability at 28.5 h, 10 µM worked out at 90.5%.

For the molecule `OCCOc1ccccc1-c1nnco1` [CBK001972], the viability at 28.5 h, 10 µM was determined as 92.6%.

For the molecule `O=S(=O)(c1ccccc1)n1ccc2c(Br)cccc21` [CBK002084], the viability at 28.5 h, 10 µM turned out to be 113%.

`CC(C)(C)OC(=O)N1CCN(c2ccnc(Cl)n2)CC1` [CBK002095]: the viability at 28.5 h, 10 µM worked out at 120%.

Regarding `COc1ccccc1N1CCN(C(=O)N(CCN)CCC(C)c2ccccc2)CC1` (stereo not shown) [CBK002137C], the viability at 28.5 h, 10 µM stood at 88.7%.

For `O=C(CSc1ccccc1)c1ccccc1` [CBK002224], the viability at 28.5 h, 10 µM worked out at 97.4%.

Take `CCOC(=O)c1c(-c2ccc(OC)cc2)noc1C(O)c1ccccc1` (stereo not shown) [CBK002296]: the viability at 28.5 h, 10 µM is 90.6%.

In the case of `Oc1cc(C(F)(F)F)nc(SCc2ccc(Cl)cc2)n1` [CBK002305], the viability at 28.5 h, 10 µM was 106%.

For the molecule `CC(CCN(CCN)C(=O)N1CCC(CNS(C)(=O)=O)(c2ccccc2)CC1)c1ccccc1` (stereo not shown) [CBK002335C], the viability at 28.5 h, 10 µM stood at 82.9%.

Consider `Oc1cc(C(F)(F)F)nc(N2CCCC2)n1` [CBK002389], for which the viability at 28.5 h, 10 µM is 105%.

Turning to `Oc1cc(C(F)(F)F)nc(NCc2ccc(-c3ccccc3)cc2)n1` [CBK002395], the viability at 28.5 h, 10 µM worked out at 105%.

Regarding `Cc1cccc(CN(CC(C)(C)CN)C(=O)Nc2ccccc2C(F)(F)F)n1` [CBK002409C], the viability at 28.5 h, 10 µM worked out at 105%.

`COc1ccc(F)c(CN(CC(C)(C)CN)C(=O)Nc2ccccc2C(F)(F)F)c1` [CBK002412C]: the viability at 28.5 h, 10 µM was found to be 90.1%.

Regarding `Cc1ccc(NC(=O)N(Cc2ccccc2Br)CC(C)(C)CN)cc1[N+](=O)[O-]` [CBK002436C], the viability at 28.5 h, 10 µM turned out to be 111%.

Take `Cc1ccc(NC(=O)N(Cc2ccc(-c3ccccc3)cc2)CC(C)(C)CN)cc1[N+](=O)[O-]` [CBK002439C]: the viability at 28.5 h, 10 µM stood at 83.7%.

Turning to `Cc1cccc(CN(CC(C)(C)CN)C(=O)Nc2ccc(-c3ccccc3)cc2)n1` [CBK002453C], the viability at 28.5 h, 10 µM is 86.7%.

As for `CC(C)(CN)CN(Cc1ccccc1Br)C(=O)NCc1ccc(F)cc1` [CBK002469C], the viability at 28.5 h, 10 µM was 92.9%.

Turning to `COc1ccccc1CN(CC(C)(C)CN)C(=O)NCc1ccc(F)cc1` [CBK002470C], the viability at 28.5 h, 10 µM turned out to be 87%.

As for `CC(C)(CN)CN(Cc1ccccc1C(F)(F)F)C(=O)NCc1ccc(F)cc1` [CBK002471C], the viability at 28.5 h, 10 µM came out at 87.8%.

For `CC(C)(CN)CN(Cc1cccc(Cl)c1)C(=O)Nc1ccc2c(c1)OCO2` [CBK002482C], the viability at 28.5 h, 10 µM worked out at 107%.

For the molecule `Fc1ccccc1Oc1nnnn1-c1ccccc1` [CBK002526], the viability at 28.5 h, 10 µM turned out to be 98.2%.

In the case of `COc1cc(C#N)ccc1Oc1ccc([N+](=O)[O-])cc1C(F)(F)F` [CBK002544], the viability at 28.5 h, 10 µM stood at 104%.

For `COc1cc(C#N)ccc1Oc1ccc([N+](=O)[O-])cn1` [CBK002569], the viability at 28.5 h, 10 µM was 108%.

Take `COc1cc(C#N)ccc1OCc1ccccc1` [CBK002577]: the viability at 28.5 h, 10 µM amounted to 62%.

For the molecule `COc1cc(C#N)ccc1OCc1cc(C)on1` [CBK002581], the viability at 28.5 h, 10 µM amounted to 86.1%.

Take `COc1cc(C#N)ccc1OCc1ccc2nc(C(F)(F)F)cc(Cl)c2c1` [CBK002589]: the viability at 28.5 h, 10 µM was 98.3%.

Turning to `O=[N+]([O-])c1ccc(Oc2cccc(Cl)c2Cl)c(C(F)(F)F)c1` [CBK002594], the viability at 28.5 h, 10 µM stood at 82.8%.

Regarding `O=[N+]([O-])c1cc(F)ccc1Oc1cccc(Cl)c1Cl` [CBK002604], the viability at 28.5 h, 10 µM is 112%.

Turning to `N#Cc1ccc(COc2cccc(Cl)c2Cl)cc1` [CBK002611], the viability at 28.5 h, 10 µM was 92.5%.

In the case of `Cc1cc(CSc2cccs2)no1` [CBK002635], the viability at 28.5 h, 10 µM was 91.8%.

As to `N#Cc1ccccc1-c1ccc(CSc2cccs2)cc1` [CBK002638], the viability at 28.5 h, 10 µM stood at 90.5%.

As to `Clc1ccc(COc2cccc3cccnc23)cn1` [CBK002718], the viability at 28.5 h, 10 µM came to 93.2%.

For the molecule `O=[N+]([O-])c1ccc(Oc2cccc3cccnc23)c(F)c1` [CBK002750], the viability at 28.5 h, 10 µM was found to be 60.4%.

As to `O=[N+]([O-])c1cccnc1Oc1cccc2cccnc12` [CBK002760], the viability at 28.5 h, 10 µM was determined as 97.4%.

Turning to `COc1ccccc1OCc1ccc(Cl)s1` [CBK002782], the viability at 28.5 h, 10 µM was determined as 82.7%.

Take `FC(F)(F)c1cccc(Oc2nnnn2-c2ccccc2)c1` [CBK002798]: the viability at 28.5 h, 10 µM was determined as 92.6%.

`N#Cc1ccc(Oc2cccc(C(F)(F)F)c2)c(F)c1` [CBK002801]: the viability at 28.5 h, 10 µM was found to be 88.3%.

`COc1ccccc1OCc1ccccc1` [CBK002814]: the viability at 28.5 h, 10 µM is 105%.

`Cc1ccc(Oc2ccc([N+](=O)[O-])cc2F)c(Br)c1` [CBK002821]: the viability at 28.5 h, 10 µM turned out to be 90.3%.

For `Cc1ccc(Oc2nnnn2-c2ccccc2)c(Br)c1` [CBK002827], the viability at 28.5 h, 10 µM came to 106%.

`Cc1ccc(OCc2cc(C)on2)c(Br)c1` [CBK002837]: the viability at 28.5 h, 10 µM was 109%.

In the case of `COc1ccccc1Oc1ccc(C(F)(F)F)cc1[N+](=O)[O-]` [CBK002845], the viability at 28.5 h, 10 µM is 99%.

With `COc1ccccc1Oc1ccc([N+](=O)[O-])cc1F` [CBK002850], the viability at 28.5 h, 10 µM stood at 90.8%.

Regarding `O=C(O)[C@@H]1CCCN1c1nc(O)cc(C(F)(F)F)n1` [CBK002865], the viability at 28.5 h, 10 µM was 81.3%.

Take `Fc1cccc(SCc2ccccc2)c1` [CBK002912]: the viability at 28.5 h, 10 µM is 117%.

As for `Cc1cc(=O)oc2cc(Sc3sccc3[N+](=O)[O-])ccc12` [CBK002936], the viability at 28.5 h, 10 µM stood at 90.5%.

As for `Cc1nn(C)c(Sc2ccccc2)c1[N+](=O)[O-]` [CBK002937], the viability at 28.5 h, 10 µM worked out at 97.9%.

On to `Cc1cc(=O)oc2cc(Sc3ccc([N+](=O)[O-])cc3)ccc12` [CBK002954], for which the viability at 28.5 h, 10 µM was 95.7%.

`CN1CCN(c2nc(NS(=O)(=O)c3ccc(OC(F)(F)F)cc3)cc3ccccc23)CC1` [CBK002978C]: the viability at 28.5 h, 10 µM was determined as 87.7%.

Consider `NCCC(=O)N(CCc1cc(C(F)(F)F)cc(C(F)(F)F)c1)c1ccc(Oc2ccccc2)cc1` [CBK002998T], for which the viability at 28.5 h, 10 µM is 97.7%.

In the case of `OC(CNCCc1ccccc1)COc1c(Br)cccc1Br` (stereo not shown) [CBK003071], the viability at 28.5 h, 10 µM came to 94%.

For `Cc1cccc(Cl)c1OCC(O)CNCCc1ccccc1` (stereo not shown) [CBK003076], the viability at 28.5 h, 10 µM was determined as 102%.

With `OC(COc1c(Br)cccc1Br)CN1CCCCC1` (stereo not shown) [CBK003077T], the viability at 28.5 h, 10 µM is 90.9%.

Turning to `CC(C)c1cccc(C(C)C)c1OCC(O)CN1CCCCC1` (stereo not shown) [CBK003079T], the viability at 28.5 h, 10 µM amounted to 94.6%.

In the case of `O=[N+]([O-])c1ccc(CCNCC(O)COc2cccc3c2CCCC3)cc1` (stereo not shown) [CBK003083], the viability at 28.5 h, 10 µM was determined as 88.6%.

One may read the viability as a read-out of living cells in per cent, often relative to untreated cells.
